Literature values as cited in US20100080768A1, “Compositions and Methods for the Treatment of Inflammatory Dermatosis and Other Pathological Conditions of the Skin” (priority 2008, published 2010).

Assays:
[1] = not given; remark: listed apart in the source

NC(=O)c1cccnc1 [Nicotinamide, nicotinamide]
pka value: 0.5 | solubility in water [1]: free soluble
